Results taken from ChEMBL document CHEMBL1150170, “An antiplasmodial lignan from Euterpe precatoria” (J Nat Prod, 2002).

Tested on: Plasmodium falciparum
Assay: Antiplasmodial activity against chloroquine-sensitive Plasmodium falciparum 3D7 by [3H]phenylalanine uptake
Format: functional, organism-based

## COc1cc([C@@H]2Oc3c(OC)cc(/C=C/COC(=O)c4ccccc4)cc3[C@H]2COC(=O)c2ccccc2)ccc1O (racemic) [DEHYDRODICONIFERYL ALCOHOL DIBENZOATE]
  IC50: 12 µM
